Data as given in BigSolDB 2.1.

O=C(OCCO)c1ccc(C(=O)OCCO)cc1
solubility (mole fraction)
Details | 283.15 K | 288.15 K | 293.15 K | 298.15 K | 303.15 K | 308.15 K | 313.15 K | 318.15 K | 323.15 K | 328.15 K
in ethanol | 0.000577 | 0.000802 | 0.00113 | 0.00141 | 0.00169 | 0.00249 | 0.00315 | 0.00395 | 0.00521 | 0.00656
in ethylene glycol | 0.000174 | 0.000264 | 0.000391 | 0.000554 | 0.000859 | 0.00118 | 0.0018 | 0.00255 | 0.0037 | 0.00499
in methanol | 0.000772 | 0.00104 | 0.00142 | 0.00184 | 0.00238 | 0.00329 | 0.00404 | 0.00517 | 0.00656 | 0.00815
in water | 1.7e-05 | 2.4e-05 | 3.2e-05 | 4.2e-05 | 5.8e-05 | 7.7e-05 | 9.6e-05 | 0.000132 | 0.000171 | 0.000221
